Measurements taken from publication PMC12040169 (PLOS Biology, 2025).

Test: in vitro
Details: human, hela cells, % viability

| SMILES | viability at 28.5 h, 10 µM [%] |
| --- | --- |
| O=C(Nc1ccccc1)N1C[C@@H]2C[C@H](C1)c1c(-c3cccnc3)ccc(=O)n1C2 [CBK289193] | 92.3 |
| O=C(c1cccs1)N1C[C@@H]2C[C@H](C1)c1c(-c3cncnc3)ccc(=O)n1C2 [CBK289194] | 90.7 |
| N#Cc1ccc(C(=O)N2C[C@@H]3C[C@H](C2)c2c(-c4cccc(C#N)c4)ccc(=O)n2C3)cc1 [CBK289196] | 104 |
| COc1ccccc1NC(=O)N1C[C@@H]2C[C@H](C1)c1c(-c3cccc(C#N)c3)ccc(=O)n1C2 [CBK289197] | 92.8 |
| CC(=O)Nc1ccc(-c2ccc(=O)n3c2[C@@H]2C[C@@H](CN(C(=O)c4ccccc4)C2)C3)cc1 [CBK289198] | 89.4 |
| CSCC(=O)N1C[C@@H]2C[C@H](C1)c1c(-c3ccc(NC(C)=O)cc3)ccc(=O)n1C2 [CBK289200] | 89.7 |
| CC(=O)N1C[C@@H]2C[C@H](C1)c1ccc(NC(=O)c3ccc(C#N)cc3)c(=O)n1C2 [CBK289202] | 90.6 |
| COc1ccc(CC(=O)Nc2ccc3n(c2=O)C[C@H]2C[C@@H]3CN(C(C)=O)C2)cc1 [CBK289203] | 99.1 |
| CN(C)CC(=O)Nc1ccc2n(c1=O)C[C@H]1C[C@@H]2CN(Cc2ccccn2)C1 [CBK289206] | 107 |
| CC1=C[C@@H](CNC(=O)c2ccccn2)[C@H](C(C)C)C[C@H]1CC(=O)N1CCCC1 [CBK289207] | 86.5 |
| CC(=O)NC[C@@H]1C=C(C)[C@H](CC(=O)Nc2ccccn2)C[C@H]1C(C)C [CBK289209] | 92.3 |
| CC1=C[C@@H](CNS(=O)(=O)c2cccs2)[C@H](C(C)C)C[C@H]1CC(=O)O [CBK289210] | 92.4 |
| CC1=C[C@@H](CNC(=O)c2ccccc2)[C@H](C(C)C)C[C@H]1CC(=O)O [CBK289213] | 102 |
| CC(=O)N1CCN(C(=O)C[C@@H]2C[C@@H](C(C)C)[C@H](CC#N)C=C2C)CC1 [CBK289214] | 103 |
| CC1=C[C@@H](CC#N)[C@H](C(C)C)C[C@H]1CC(=O)Nc1ccccn1 [CBK289215] | 87 |
| COc1ccc(NC(=O)C[C@@H]2C[C@@H](C(C)C)[C@H](CC#N)C=C2C)cn1 [CBK289216] | 85.7 |
| CC1=C[C@@H](CO)[C@H](C(C)C)C[C@H]1CC(=O)N1CCN(CCO)CC1 [CBK289217] | 85.7 |
| CC1=C[C@@H](CO)[C@H](C(C)C)C[C@H]1CC(=O)NCc1cccnc1 [CBK289218] | 81.7 |
| CC1=C[C@@H](CN2CCC(O)CC2)[C@H](C(C)C)C[C@H]1Cc1nnc(-c2ccccc2)o1 [CBK289220] | 97.2 |
| CC(=O)N1CCN(C[C@@H]2C=C(C)[C@H](Cc3nnc(C(C)(C)C)o3)C[C@H]2C(C)C)CC1 [CBK289221] | 86 |
| CC(=O)NC[C@@H]1C=C(C)[C@H](Cc2nnc(-c3cncn3C)o2)C[C@H]1C(C)C [CBK289225] | 107 |
| CC1=C[C@@H](CNS(C)(=O)=O)[C@H](C(C)C)C[C@H]1Cc1nnc(-c2ccccc2F)o1 [CBK289226] | 116 |
| COc1ccc(NC(=O)N[C@H]2C[C@H]3C(=O)N[C@H](Cc4ccccc4)C(=O)N3C2)cc1 [CBK289227] | 84.7 |
| CC1(C)[C@H](Cc2cc(CO)on2)C[C@@H]1NS(=O)(=O)c1ccccc1 [CBK289234] | 86 |
| CC1(C)[C@H](Cc2cc(CO)on2)C[C@@H]1NC(=O)C1CCCCC1 [CBK289235] | 93.1 |
| O=C1CO[C@H]2CN(S(=O)(=O)c3ccccc3)C[C@H]2N1c1ccccc1 [CBK289236] | 93.7 |
| c1ccc(-c2cc(CC3(NCc4cccnc4)COC3)no2)nc1 [CBK289238] | 83.5 |

| SMILES | viability at 28.5 h, 10 µM [%] |
| --- | --- |
| c1ccc(-c2cc(CC3(NCc4cc5ccccc5o4)COC3)no2)nc1 [CBK289239] | 93.4 |
| CC(=O)N[C@H]1C[C@@H](Cc2cc(CCO)on2)C1(C)C [CBK289243] | 99.7 |
| COCC(=O)N[C@H]1C[C@@H](Cc2cc(C(C)(C)C)on2)C1(C)C [CBK289244] | 106 |
| CC(=O)N1C[C@@H]2OCC(=O)N(Cc3ccccn3)[C@@H]2C1 [CBK289245] | 95.8 |
| CC(C)C(=O)N[C@H]1C[C@@H](Cc2cc(CN3CCOCC3)on2)C1(C)C [CBK289248] | 99.8 |
| CN1CCC(NC2(Cc3cc(-c4ccccn4)on3)COC2)CC1 [CBK289249] | 88.7 |
| CN1CCC(N[C@H]2C[C@@H](Cc3cc(CCO)on3)C2(C)C)CC1 [CBK289253] | 93.6 |
| CC(C)(O)c1cc(CC2(NCc3ccc(Cl)cc3)COC2)no1 [CBK289254] | 80.1 |
| CC(C)(O)c1cc(CC2(NCc3ccco3)COC2)no1 [CBK289255] | 92.6 |
| CC1(C)[C@H](Cc2cc(CC3CCCCC3)on2)C[C@@H]1NC(=O)C1CCCC1 [CBK289256] | 84.7 |
| CCCCc1cc(C[C@@H]2C[C@H](NC(=O)N3CCOCC3)C2(C)C)no1 [CBK289257] | 87.9 |
| CC1(C)[C@H](Cc2cc(CC3CCCCC3)on2)C[C@@H]1NC(=O)N1CCOCC1 [CBK289258] | 98.6 |
| O=C1CO[C@H]2CN(Cc3ncc[nH]3)C[C@H]2N1Cc1ccncc1 [CBK289259] | 108 |
| N#Cc1ccc(CN2C[C@@H]3OCC(=O)N[C@@H]3C2)cc1 [CBK289261] | 103 |
| COc1ccc(CN2C(=O)CO[C@H]3CN(C(=O)COc4ccccc4)C[C@H]32)cc1 [CBK289262] | 108 |
| COc1ccc(C(=O)N[C@H]2C[C@@H]3C(=O)N[C@H]4CCN(C(=O)C5CCC5)[C@@H]4C(=O)N3C2)cc1 [CBK289266] | 89.3 |
| COc1ccccc1CC(=O)N1CC[C@@H]2NC(=O)[C@H]3C[C@H](NC(=O)C4CC4)CN3C(=O)[C@H]21 [CBK289267] | 103 |
| O=C(N[C@H]1C[C@@H]2C(=O)N[C@H]3CCN(C(=O)Cc4cccs4)[C@@H]3C(=O)N2C1)C1CCC1 [CBK289269] | 117 |
| O=C(O)CCC(=O)N[C@H]1CCN2C(=O)c3cc(-c4ccc(Cl)cc4)ccc3NC(=O)[C@H]12 [CBK289275] | 115 |
| Cc1ccc(S(=O)(=O)N2C[C@H](O)C[C@H]2C(=O)O)cc1 [CBK289276] | 103 |
| CCCN1C(=O)[C@@H]2[C@@H](CCN2C(=O)C(=O)O)N(Cc2cccs2)C1=O [CBK289277] | 93.1 |
| COc1ccc(CC(=O)N2CC[C@H]3NC(=O)N(c4ccccc4)C(=O)[C@H]32)cc1 [CBK289278] | 92.7 |
| COc1cccc(N2C(=O)N[C@@H]3CCN(S(=O)(=O)c4ccccc4)[C@@H]3C2=O)c1 [CBK289283] | 111 |
| Cc1ccc(N2C(=O)N[C@@H]3CCN(C(=O)c4ccc(C(C)(C)C)cc4)[C@@H]3C2=O)cc1 [CBK289284] | 98.8 |
| Cc1ccc(N2C(=O)N[C@@H]3CCN(S(=O)(=O)c4ccccc4)[C@@H]3C2=O)cc1 [CBK289285] | 107 |
| COC(=O)C(=O)N1CC[C@H]2NC(=O)N(c3ccc(C(C)C)cc3)C(=O)[C@H]21 [CBK289287] | 105 |
| CC(C)c1ccc(N2C(=O)N[C@@H]3CCN(S(=O)(=O)c4ccccc4)[C@@H]3C2=O)cc1 [CBK289289] | 114 |
